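1) Cells in 96-well plates. 2) Compound, 48 h, 5 concentrations. 3) Linear interpolation between surrounding doses. 4) Unreached endpoint = highest concentration. TGI denotes the concentration required for complete inhibition of growth.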
Columns and labels:
Test in all cases: DTP human tumour cell line panel, 48 h
[1] = system: SR leukemia
[2] = system: EKVX NSCLC
[3] = system: HOP-92 NSCLC
[4] = system: SNB-75 CNS
[5] = system: MOLT-4 leukemia
[6] = system: U251 CNS
[7] = system: K-562 leukemia
[8] = system: HCC-2998 colon
[9] = system: MDA-MB-435
[10] = system: SF-268 CNS
[11] = system: SNB-19 CNS
[12] = system: UACC-257 melanoma
[13] = system: SN12C renal
[14] = system: LOX IMVI melanoma
[15] = system: OVCAR-8 ovarian
[16] = system: HL-60(TB) leukemia
[17] = system: SF-295 CNS
[18] = system: MCF7 breast
[19] = system: OVCAR-4 ovarian
[20] = system: NCI-H460 lung
[21] = system: SF-539 CNS
[22] = system: HCT-15 colon
[23] = system: DU-145 prostate
[24] = system: SK-OV-3 ovarian
[25] = system: UACC-62 melanoma
[26] = system: COLO 205 colon
[27] = system: HOP-62 NSCLC
[28] = system: SK-MEL-28 melanoma
[29] = system: MDA-N
[30] = system: 786-0 renal
[31] = system: BT-549 breast
[32] = system: CCRF-CEM leukemia
[33] = system: SK-MEL-5 melanoma
[34] = system: TK-10 renal
[35] = system: M14 melanoma
[36] = system: ACHN renal
[37] = system: RXF 393 renal
[38] = system: PC-3 prostate
[39] = system: T-47D breast
[40] = system: IGROV1 ovarian
[41] = system: NCI/ADR-RES ovarian
[42] = system: MDA-MB-231 breast
[43] = system: CAKI-1 renal
[44] = system: HT29 colon
[45] = system: SK-MEL-2 melanoma
[46] = system: HS 578T breast
[47] = system: A549 NSCLC
[48] = system: OVCAR-3 ovarian
[49] = system: SW-620 colon
[50] = system: KM12 colon
[51] = system: UO-31 renal
[52] = system: RPMI-8226 leukemia
[53] = system: OVCAR-5 ovarian
[54] = system: HCT-116 colon
[55] = system: NCI-H226 lung
[56] = system: NCI-H23 lung
[57] = system: NCI-H522 lung
[58] = system: MALME-3M melanoma

Work on `COc1cc(/C=C2\N=C(c3ccccc3)N(c3nc4cc(C)c(C)cc4s3)C2=O)ccc1O` yielded a TGI [1] of 57.8 µM, a TGI [2] greater than 100 µM and a TGI [3] greater than 100 µM. For the same molecule, the TGI [4] was greater than 100 µM, the TGI [5] was greater than 100 µM and the TGI [6] was greater than 100 µM. It also gave a TGI [7] greater than 100 µM, a TGI [8] of 69.9 µM and a TGI [9] of 52.1 µM. The TGI [10] was greater than 100 µM, the TGI [11] was greater than 100 µM and the TGI [12] was greater than 100 µM. The TGI [13] was 78.9 µM, the TGI [14] was greater than 100 µM and the TGI [15] was greater than 100 µM. For the same molecule, the TGI [16] was 43.9 µM, the TGI [17] was greater than 100 µM and the TGI [18] was 39.1 µM. For the same molecule, the TGI [19] was greater than 100 µM, the TGI [20] was greater than 100 µM and the TGI [21] was 60.9 µM. It also gave a TGI [22] greater than 100 µM, a TGI [23] greater than 100 µM and a TGI [24] greater than 100 µM. The TGI [25] was greater than 100 µM, the TGI [26] was greater than 100 µM and the TGI [27] was greater than 100 µM. It also gave a TGI [28] greater than 100 µM, a TGI [29] of 37.7 µM and a TGI [30] greater than 100 µM. It also gave a TGI [31] greater than 100 µM, a TGI [32] of 39.1 µM and a TGI [33] greater than 100 µM. For the same molecule, the TGI [34] was greater than 100 µM, the TGI [35] was greater than 100 µM and the TGI [36] was greater than 100 µM. It also gave a TGI [37] of 82.2 µM, a TGI [38] greater than 100 µM and a TGI [39] greater than 100 µM. For the same molecule, the TGI [40] was greater than 100 µM, the TGI [41] was greater than 100 µM and the TGI [42] was greater than 100 µM. The TGI [43] was greater than 100 µM, the TGI [44] was 99.1 µM and the TGI [45] was greater than 100 µM. It also gave a TGI [46] greater than 100 µM, a TGI [47] greater than 100 µM and a TGI [48] of 65.3 µM. The TGI [49] was greater than 100 µM, the TGI [50] was greater than 100 µM and the TGI [51] was greater than 100 µM. The TGI [52] was greater than 100 µM, the TGI [53] was greater than 100 µM and the TGI [54] was 61.8 µM.
`CC[C@H](Nc1c(O)c2c(c(O)c1Cl)C(=O)C=CC2=O)C(=O)OC` showed a TGI [1] of 7.74 µM, a TGI [2] greater than 10 µM and a TGI [3] greater than 10 µM. The TGI [4] was greater than 10 µM, the TGI [5] was 9.57 µM and the TGI [6] was greater than 10 µM. It also gave a TGI [7] greater than 10 µM, a TGI [55] greater than 10 µM and a TGI [9] greater than 10 µM. The TGI [10] was greater than 10 µM, the TGI [11] was greater than 10 µM and the TGI [12] was greater than 10 µM. It also gave a TGI [13] of 9.16 µM, a TGI [14] greater than 10 µM and a TGI [15] greater than 10 µM. The TGI [16] was 8.64 µM, the TGI [17] was greater than 10 µM and the TGI [18] was greater than 10 µM. It also gave a TGI [19] greater than 10 µM, a TGI [20] greater than 10 µM and a TGI [21] of 9.29 µM. The TGI [22] was greater than 10 µM, the TGI [23] was greater than 10 µM and the TGI [24] was greater than 10 µM. It also gave a TGI [25] greater than 10 µM, a TGI [26] greater than 10 µM and a TGI [27] greater than 10 µM. The TGI [56] was greater than 10 µM, the TGI [29] was greater than 10 µM and the TGI [30] was greater than 10 µM. It also gave a TGI [31] greater than 10 µM, a TGI [32] greater than 10 µM and a TGI [33] greater than 10 µM. For the same molecule, the TGI [34] was greater than 10 µM, the TGI [35] was greater than 10 µM and the TGI [36] was greater than 10 µM. It also gave a TGI [38] greater than 10 µM, a TGI [57] greater than 10 µM and a TGI [40] greater than 10 µM. For the same molecule, the TGI [41] was greater than 10 µM, the TGI [42] was 9.76 µM and the TGI [43] was greater than 10 µM. The TGI [44] was greater than 10 µM, the TGI [45] was greater than 10 µM and the TGI [46] was greater than 10 µM. The TGI [47] was greater than 10 µM, the TGI [48] was greater than 10 µM and the TGI [49] was greater than 10 µM. It also gave a TGI [50] greater than 10 µM, a TGI [52] greater than 10 µM and a TGI [53] greater than 10 µM. For the same molecule, the TGI [54] was 5.89 µM and the TGI [58] was greater than 10 µM.

From PubChem BioAssay (NCI)
